Here are results for 14 substances from patent KR20080021588A, “메카노 성장 인자 펩티드 및 이들의 용도” (유씨엘 비즈니스 피엘씨, priority 2005, dated 2006).

Where no end group is shown, it is not given here. A value given as a limit tells only on which side of the number the result lay.

Assay [1] deals with C2C12 근육 세포. In words: C2C12 cell proliferation assay (Alamar Blue). The assay is classed as cell-based, mouse. The conditions noted are these: 2, 5, 50 and 100 ng/ml; 2000 cells/well; medium with IGF-I 2 ng/ml; 36 h; vs medium-only control.
For assay [2], the system named is C2C12 근육 세포. In words: C2C12 cell proliferation assay (BrdU incorporation). The assay is classed as cell-based, mouse. The following applies: 0.1, 1, 10 and 100 ng/ml; 500 cells/well; 24 h stimulation, 5 h BrdU.
The next assay has as its system 뇌 허혈의 게르빌루스쥐 모델. In words: Neuroprotection in gerbil model of brain ischaemia (surviving CA1 neurons). The assay is classed as in vivo, Mongolian gerbil. The following applies: 25 µg injection, 7 days after ischaemic insult.
The subject of another assay is 래트 기관형적 해마 배양물. The experiment in a line: In vitro neuroprotection against TBH oxidative stress in organotypic hippocampal slices (PI staining). The assay is classed as cell-based, Wistar rat. The conditions noted are these: 100 ng/ml.
The next assay relates to 정상 두개안면 (교근) 초대 배양물. In words: Myogenic progenitor (desmin-positive) cell proliferation, normal craniofacial muscle primary culture. The conditions noted are these: normal craniofacial (masseter); peptide 10 ng/ml alone; untreated 49.8±2.4%. It is filed as cell-based, human.
The test system of a further assay is HSMM 세포. The experiment in a line: Human primary cell (HSMM) proliferation assay (BrdU incorporation). The assay is classed as cell-based. The following applies: 48 h; A5 at doses up to 10 ng/ml (P < 0.1); IGF-I alone at any dose.
The next assay deals with FSHD 사지. The experiment in a line: Myogenic progenitor (desmin-positive) cell proliferation, FSHD muscle primary culture. The assay is classed as cell-based, human. The conditions noted are these: peptide 10 ng/ml alone, untreated 11.7±1.3%.
The test system of assay [3] is 선천성 근이영양증 (CMD)에서 유래된 초대 배양물. The experiment in a line: Myogenic progenitor (desmin-positive) cell proliferation, CMD muscle primary culture. The conditions noted are these: peptide 10 ng/ml alone, untreated 10.4±1.7%. It is filed as cell-based, human.
The subject of another assay is 경색된 양 심장. In words: Cardioprotection after myocardial infarction in sheep (ejection fraction by echocardiography). The assay is classed as in vivo. The following applies: intracoronary injection 15 min after infarction, day 6 vs day before procedure.
Another assay relates to 정상 하지 (사두근) 초대 배양물. In words: Myogenic progenitor (desmin-positive) cell proliferation, normal limb muscle primary culture. It is filed as cell-based, human. The following applies: normal limb (quadriceps); peptide 10 ng/ml alone; untreated 38.4±2.5%.
For the next assay, the system named is 초대 인간 근육 세포 배양물. In words: Creatine phosphokinase (CPK) assay of myogenic differentiation / myotube formation. The assay is classed as cell-based, human. The following applies: peptide alone in differentiation medium, 48 h; IGF-I at 10 ng/ml.
The next assay has as its system mdx 마우스의 근이영양성 근육. In words: Tetanic force of dystrophic muscle after intramuscular injection in mdx mice. The conditions noted are these: i.m. twice weekly for 3 weeks. It is filed as in vivo, mouse.
A further assay has as its system ALS 사지. In words: Myogenic progenitor (desmin-positive) cell proliferation, ALS muscle primary culture. The assay is classed as cell-based, human. The conditions noted are these: peptide 10 ng/ml alone, untreated 4.8±1.1%.
The test system of the next assay is 단핵성 근육모세포 (수반 세포). In words: Biological activity: induction of mononucleated myoblast replication (Alamar Blue). The assay is classed as cell-based. Further details: key to biological activity score (scale 0 to 3): 0: 6시간에서 측정가능한 세포 수 증가 없음; 1: 4시간에서 유의한 세포 수 증가; 2시간에서 유의한 세포 수 증가; 3: 1시간에서 유의한 세포 수 증가. The conditions noted are these: cell number by Alamar Blue. In general terms: The colour change of resazurin is a common sign of viable cells or microbes.

In the case of GSTFEEHK [DMGF], the “induction of C2C12 cell proliferation (Alamar Blue fluorescence)” value with C2C12 근육 세포 [1] is listed as “세포 증식을 유도하였다”.
As for GSTFEEHK [펩티드 A8], the “induction of C2C12 cell proliferation (BrdU incorporation)” value with C2C12 근육 세포 [2] was “세포 증식을 유도하였다”.
As to GSTFEERK [펩티드 A2], the “induction of C2C12 cell proliferation (BrdU incorporation)” value with C2C12 근육 세포 [2] is given as “세포 증식을 유도하였다”.
Regarding “IGF-I: IGF-I receptor binding domain encoded by exons 3 and 4, about 70 amino acids; from PeproTech or Sigma-Aldrich”, the “surviving CA1 neurons as % of control neuron number, side not stated” value in the assay with 뇌 허혈의 게르빌루스쥐 모델 is recorded as 15.8 %. Moreover, in the assay on 뇌 허혈의 게르빌루스쥐 모델 (n=5), the “surviving CA1 neurons, side not stated” value is 19.2 ± 7.3 개. Also, in the assay on 래트 기관형적 해마 배양물 (TBH 3 h, CA1 region, 24 h), the “protection against TBH-induced cell death” value was 72 %. In addition, the “time over which the neuroprotective effect was marked” value with 래트 기관형적 해마 배양물 (cell death assessed 24 h and 48 h after start) is reported as ≤ 24 시간. Also, the “desmin-positive cells as % of total (DAPI-positive) cells” value in the assay with 정상 두개안면 (교근) 초대 배양물 is given as 58.4±4.2 %; with FSHD 사지 it was 14.1±1.6 %; in assay [3], 13.2±1.7 %; in the assay with 정상 하지 (사두근) 초대 배양물, 47.1±3.5 %; with ALS 사지 it was 4.7±1.4 %. In addition, the “effect on HSMM proliferation (BrdU incorporation), used alone” value with HSMM 세포 was “유의한 효과가 없었다”. In the assay with 경색된 양 심장, the “effect on ejection fraction and percentage of viable myocardium after MI” value is reported as “더욱 작은 효과”. In addition, the “effect on primary myoblast differentiation and myotube formation (CPK)” value in the assay on 초대 인간 근육 세포 배양물 is “근관 형성을 명백하게 자극한다”. In the assay with mdx 마우스의 근이영양성 근육, the “increase in tetanic force of dystrophic muscle” value is on record as ~5 %. For the same substance, the “induction of C2C12 cell proliferation (Alamar Blue fluorescence)” value with C2C12 근육 세포 [1] is “통계학적으로 상이하였다”.
Consider “PSTNKNTKSQARKGSTFEEHK [짧은 펩티드 3, Arg14→Ala, three N-terminal amino acids removed]”, for which, in the assay with 단핵성 근육모세포 (수반 세포), the “biological activity score (scale 0 to 3)” value was 0.
On to “TNKNTKSQARKGSTFEEHK [짧은 펩티드 4, Arg14→Ala, five N-terminal amino acids removed]”, for which, in the assay on 단핵성 근육모세포 (수반 세포), the “biological activity score (scale 0 to 3)” value is 0.
Same read-out and setting: then YQPPATNKNTKSQRRKGSTFEEHK [펩티드 2], with 1.
Consider YQPPSTNKNTKAQRRKGSTFEEHK [펩티드 3], for which the “biological activity score (scale 0 to 3)” value with 단핵성 근육모세포 (수반 세포) amounted to 3.
Same read-out and setting: to YQPPSTNKNTKSQAAKGSTFEEHK [펩티드 6] belongs 0.
Turning to “YQPPSTNKNTKSQARKGSTF [짧은 펩티드 2, Arg14→Ala, four C-terminal amino acids removed]”, in the assay on 단핵성 근육모세포 (수반 세포), the “biological activity score (scale 0 to 3)” value was 0.
In the case of “YQPPSTNKNTKSQARKGSTFEE [짧은 펩티드 1, Arg14→Ala, two C-terminal amino acids removed]”, in the assay on 단핵성 근육모세포 (수반 세포), the “biological activity score (scale 0 to 3)” value amounted to 1.
Regarding YQPPSTNKNTKSQARKGSTFEEHK [펩티드 5], the “biological activity score (scale 0 to 3)” value in the assay on 단핵성 근육모세포 (수반 세포) turned out to be 2.
Same read-out and setting: then YQPPSTNKNTKSQRRKGATFEEHK [펩티드 4], with 2.
Consider “YQPPSTNKNTKSQRRKGSTFEEHK [펩티드 1, human Ec peptide variant with His instead of Arg at penultimate position; no PEG, no L-D conversion]”, for which the “biological activity (in words)” value with 단핵성 근육모세포 (수반 세포) is given as “활성을 거의 또는 전혀 나타내지 않았다”.
